Values joined by “and” are separate entries in the source; they are usually repeats but may differ in a detail not shown here. Equal entries are not always repeated.
What was measured:
Assay type in all cases: cell-based
[1] = system: commercial electrocompetent E. coli cells; test: Electroporation of preserved commercial electrocompetent E. coli cells; conditions: loaded with 10% MAG, transformed immediately after drying
Description: (2) Electroporation of fresh E. coli electrocompetent cells: Two aliquots of the concentrated cells (50 μl each) were transferred into pre-chilled Eppendorf tubes (1.5 ml) and 2 μl of pUC18 plasmid DNA (approx. 300 ng/μl) were added to the tubes. The [cells+DNA] mixtures were incubated on ice for 5 minutes and transferred into pre-chilled cuvettes for electroporation. The cells were electroporated by using a BTX T-100 electroporator, at 625 or at 800 volts (V) in BTX cuvettes (0.1 cm gap, P/N 610 Disposable Cuvettes) with a time constant “r” equal 5 msec. Under the pulse conditions described above, the cells were subjected to an electrical field “E” equal to 6.25 kV/cm or 8.0 kV/cm.
Immediately after the pulse, the cells were transferred into small glass tubes (10×100 mm) with 0.5 ml of “outgrowth medium” (L-broth+20% sucrose+10 mM CaCl2). The electroporated bacteria were incubated at 37° C. with moderate shaking (150 rpm) for 60 minutes. When the 60 minutes period elapsed, the cells were diluted in “outgrowth medium” and duplicate samples were spread plated on L-agar plates with no antibiotic (to determine electroporation survival) and on L-agar plates with 50 μg/ml or 100 μg/ml of ampicillin (selective marker on pUC18 plasmid; to determine electroporation efficiency). The plates were incubated overnight at 37° C. and the colonies were counted the next day.
(6) Electroporation of dried (preserved) E. coli cells: One or two 50 μl aliquots were removed from each rehydrated vial and transferred to pre-chilled Eppendorf tubes. The cells were mixed with pUC18 plasmid DNA (300 ng/μl) and electroporated using the conditions described previously for the electroporation of fresh electrocompetent cells.
Electroporation survival was calculated as the number of viable cells recovered after electrical pulse per total number of electroportated cells. Electroporation efficiency was calculated as the number of transformants (cells which received pUC18 plasmid DNA) per number of cells recovered after electroporation (electroporation survival). When applicable, the electroporation efficiency was also expressed as number of transformants per 1 μg of pUC18 DNA (Cfu/μg).
Preserved commercial cells (vitrified and frozen) were electroporated as described previously. Electroporation survival and electroporation efficiency in the preserved cells were determined and compared to the same parameters in the fresh cells (Table 5).

[2] = system: commercial electrocompetent E. coli cells; test: Preservation yield and stability of commercial electrocompetent E. coli cells
Description: (4) Preservation of electrocompetent E. coli cells: The cells (resuspended in PBS buffer or on 20% sucrose) were mixed with an equal mass of preservation solution consisting of 45% 2:1 sucrose:raffinose or 45% 4:1 sucrose:MAG on ice. Altematively, the cell pellets were resuspended directly in 22.5% sucrose:raffinose or 22.5% 4:1 sucrose:MAG. The 0.5 g aliquots were distributed in 5 ml glass serum vials or 0.2 g aliquots were distributed in 1.2 ml glass serum vials. To determine the survival in preservation solution before drying, cell-containing mixtures were diluted in PBS buffer containing 20% sucrose and appropriate dilutions were spread plated in duplicate on L-agar plates.
The samples were dried by foam formation. The mixtures were foamed at 0° C. and kept at that temperature until foam formation occurred. After foam was well formed, shelf temperature was increased to 20° C. and drying continued overnight (at least 12 hours).
When applicable, electrocompetent cells were frozen in the following manner. The cell suspension (100 μl) was mixed with 10% DMSO (10 μl) and slowly frozen at −80° C.
(5) Assaying the preserved E. coli cells: Dried samples were rehydrated at room temperature. 1 ml of rehydration solution (20% sucrose) was added to the 5 ml vials and 0.2 ml was added to the 1.2 ml vials. For the determination of preservation survival, rehydrated cells were diluted and spread plated in duplicate on L-agar plates. Plates were incubated at 37° C. overnight and colonies were counted the following day.
In this example, commercial electrocompetent E. coli cells, in the form of a bacterial pellet, were preserved by the foam formation process. The cells were concentrated 100-fold and preserved as described previously. To increase desiccation tolerance and enhance preservation survival. One aliquot of the cells were loaded in vitro with 10% MAG. The preserved cells were stored at 4° C. In addition to preservation by foam formation, the cells were preserved by slow freezing (with 10% DMSO) at −80° C.

[3] = system: logarithmic E. coli cells; test: Preservation survival and stability of logarithmic E. coli cells loaded in vitro before foam drying; conditions: mid-logarithmic cells loaded with 0.1% at 37° C. for 30 minutes
[4] = Frozen cells 72 hours at −80° C., foam formation-preserved cells (loaded with 10% MAG) dried overnight
[5] = foam-preserved cells stored at 4° C., frozen cells at −80° C.

## COC1OC(CO)C(O)C(O)C1O (stereo not shown) [MAG, a-methyl-glucoside]
[1]
  Electroporation Efficiency 10^−3%: 6.1 +/− 5.5 10^−3%
  Electroporation Efficiency (Cfu/µg DNA): 1.6 × 10^4 +/− 1.8 × 10^2 Cfu/µg DNA
  Electroporation Efficiency Cfu/ml: 1.9 × 10^5 +/− 1.7 × 10^5 Cfu/ml
  Electroporation Survival (%): 35.7 +/− 4.7%
[1]; cell density 1/10 of fresh concentrates
  Electroporation Survival Cfu/ml: 3.2 × 10^9 +/− 4.2 × 10^8 Cfu/ml
[2]; [4]
  Preservation Yield Cfu/ml: 8.8 × 10^9 +/− 3.9 × 10^8 Cfu/ml
  Preservation yield %: 63.6% and 63.6 +/− 2.8%
[2]; [5]
  Stability (12 days) %: 68.5% and 68.5 +/− 0.8%
  Stability (12 days) Cfu/ml: 9.5 × 10^9 +/− 1.1 × 10^8 Cfu/ml
[3]
  survived drying: 9%

From patent US20050074867A1, “Preservation of competent cells at ambient temperatures” (priority 2001, published 2005)
